Data on one compound can be found in paper PMC12473165, “Theranostic Potential of a New ^64Cu-Labeled NOTA-R954 Peptide Conjugate for Kinin B1R Expressing Prostate Cancer” (Pharmaceutics, 2025).

SMILES strings stand for the structures. Square brackets hold non-standard residues; d marks the D form. Peptide text beside a SMILES is read from it. Oic = O=C(O)[C@@H]1C[C@@H]2CCCC[C@@H]2N1; d2Nal = N[C@H](Cc1ccc2ccccc2c1)C(=O)O; αMeF = C[C@](N)(Cc1ccccc1)C(=O)O; Orn = NCCC[C@H](N)C(=O)O

The term IC50 denotes the concentration that gives 50% inhibition.

For experiment [1], the target named is T1, hB2R (Homo sapiens, UniProt P30411).
T1 sequence (P30411 1-391): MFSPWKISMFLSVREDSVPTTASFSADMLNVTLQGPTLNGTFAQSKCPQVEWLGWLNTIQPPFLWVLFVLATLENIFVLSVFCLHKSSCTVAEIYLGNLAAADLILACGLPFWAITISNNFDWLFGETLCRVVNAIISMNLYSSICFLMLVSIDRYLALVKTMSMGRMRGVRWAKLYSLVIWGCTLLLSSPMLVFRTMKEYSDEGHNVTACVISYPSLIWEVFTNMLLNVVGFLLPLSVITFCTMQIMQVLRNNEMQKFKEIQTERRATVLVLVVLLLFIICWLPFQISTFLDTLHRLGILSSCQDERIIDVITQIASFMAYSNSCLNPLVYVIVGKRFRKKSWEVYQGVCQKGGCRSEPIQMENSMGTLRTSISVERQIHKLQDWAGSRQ
The experiment in a line: Human umbilical vein (HUV) contractility bioassay, B2R. Set-up: native (HUV) human kinin B1R and B2R; from tissue; host or cells: isolated human umbilical vein (HUV). Particulars: isolated human umbilical vein contraction; means of 2 independent experiments.

A further experiment has as its target T2, native hB1R (Homo sapiens, UniProt P46663).
T2 construct: from tissue; host or cells: isolated human umbilical vein (HUV)
T2 sequence (P46663 1-353): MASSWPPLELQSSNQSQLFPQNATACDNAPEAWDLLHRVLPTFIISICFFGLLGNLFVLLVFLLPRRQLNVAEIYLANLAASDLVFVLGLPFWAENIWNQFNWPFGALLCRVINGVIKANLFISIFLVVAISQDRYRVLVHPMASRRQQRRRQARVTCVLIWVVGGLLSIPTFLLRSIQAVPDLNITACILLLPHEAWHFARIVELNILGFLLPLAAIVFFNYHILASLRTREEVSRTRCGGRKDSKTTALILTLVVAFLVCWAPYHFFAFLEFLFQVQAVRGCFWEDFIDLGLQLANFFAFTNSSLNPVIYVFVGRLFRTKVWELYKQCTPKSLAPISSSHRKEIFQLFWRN
The experiment in a line: Human umbilical vein (HUV) contractility bioassay, B1R. Particulars: isolated human umbilical vein contraction, DBK agonist at submaximal concentration; means of 2 independent experiments. On the procedure:
The potency (apparent affinity) of non-radioactive NOTA-βAla-R954 peptide conjugates at native inducible B1R was assessed using human tissue bioassays with isolated umbilical veins, as previously described. Collection of umbilical cords for these bioassays was approved by the CHUS Human Research Ethics Committee (protocol #97-14; 21 March 1997), and maternal consent was obtained in all cases. Antagonist affinity was expressed in terms of IC50, which represents the molar concentration of an antagonist that reduces the response to a submaximal concentration of the DBK agonist by 50%.

Experiment [2] addresses T3, hB1R (Homo sapiens, UniProt P46663).
T3 sequence (P46663 1-353): T2 sequence (P46663 1-353)
Nature of the experiment: NFAT-eGFP reporter assay in CHO-hB1R-NFAT-eGFP cells. Format: cell-based. Set-up: expressed in transfected cells; host or cells: CHO (hB1R-expressing line, then transduced with NFAT-eGFP reporter). An excerpt:
The pLenti-6V5-NFAT-eGFP vector was generated from the pSIRV-NFAT-eGFP vector (a gift from Peter Steinberger, Addgene plasmid #118031). Briefly, NFAT-eGFP gene was PCR amplified using the following primers: 5′-[…]-3′ and 5′-[…]-3′). The amplified gene was then ligated into the ClaI and AgeI restriction sites of the pLenti-6V5 vector. Lentiviruses were produced using the pLenti-6V5-NFAT-eGFP vector in HEK293T cells and used to transduce a hB1R-expressing CHO cell line, followed by selection with 10 µg/mL blasticidin. […] Clones were grown in 4000 nanowells/well in 24-well plates and re-plated into 96-well plates after initial expansion via the ALS CellCelector™ (Sartorius Corporation, Bohemia, NY, USA). After clonal expansion, individual cell lines were evaluated based on their ratio of stimulated fluorescence to basal expression to determine maximum sensitivity.
Fluorescence assays performed on CHO-hB1R-NFAT-eGFP cells. Target cells were plated at 10,000 cells/well in a 96-well microplate (opaque black wells with clear flat bottom, Thermo Scientific, Rockford, IL, USA) using RPMI 1640 medium with 10% fetal bovine serum (FBS). After 24 h, the medium was replaced by RPMI without FBS and phenol red. […] Fluorescence was measured using a TECAN M1000 (Tecan Group Ltd., Männedorf, Switzerland) multimode microplate reader with excitation at 488 nm and emission at 507 nm. Each data point represents a ratio of two values, divided by the average fluorescence of six control wells. […] Antagonist affinity (Kb) was estimated from functional inhibition curves using the Gaddum (Schild) equation assuming competitive antagonism at human B1R: Kb = [B]/(dose-ratio–1), where [B] is the antagonist concentration, and the dose ratio is EC50 + Compound/EC50.
A general note: In a reporter assay the amount or activity of a reporter protein is the signal.

Experiment [3] deals with T3, hB1R. The experiment in a line: Radioligand competition binding on HEK293 cells stably expressing hB1R. Set-up: expressed in transfected cells; host or cells: QBI-HEK293A (lentiviral transduction, puromycin selection). The settings on record: HEK293 cells stably expressing hB1R; competition with 4 nM [3H]Lys[Leu8]desArg9BK, 1-2 h, serum-free DMEM; means of 2 independent experiments in triplicates; read-out: B1R HEK293 IC50. (In general: In a radioligand displacement assay an active substance lowers the binding of a labelled ligand.)

Experiment [4] concerns the target T1, hB2R. Nature of the experiment: Radioligand competition binding on HEK293 cells stably expressing hB2R. Particulars: competition with 1 nM [3H]BK, 1-2 h, serum-free DMEM, means of 2 independent experiments in triplicates, read-out: B2R HEK293 IC50. On the procedure: Radiolabeled ligand competition binding assays were performed on HEK293 cells stably expressing hB1R or hB2R, as previously described. Cells were cultured in 24-well plates and incubated with 4 nM [^3H]Lys[Leu^8]desArg^9BK (for B1R studies) (ART1583; 90–120 Ci/mmol; American Radiolabeled Chemicals) or 1 nM [^3H]BK (for B2R studies) (NET706; 109 Ci/mmol; Perkin-Elmer, Woodbridge, ON, Canada) in serum-free DMEM for 1–2 h in the absence or presence of increasing concentrations of competitors (10^−11–10^−5M). Radioactivity in the samples was measured using a β-scintillation counter (Tri-Carb 2800; Perkin-Elmer). Binding affinities were expressed as IC50 values, calculated using GraphPad Prism version 8.2.1 software (GraphPad Software, San Diego, CA, USA).

Take `CC[C@H](C)[C@H](NC(=O)[C@@H](Cc1ccc2ccccc2c1)NC(=O)[C@H](CO)NC(=O)[C@](C)(Cc1ccccc1)NC(=O)CNC(=O)[C@@H]1CCCN1C(=O)[C@@H]1C[C@@H]2CCCC[C@@H]2N1C(=O)[C@H](CCCNC(=N)N)NC(=O)[C@H](CCCN)NC(C)=O)C(=O)O` [R954, AcOrn[Oic^2,^(αMe)Phe5,DβNal^7,Ile^8]desArg^9-bradykinin] (Ac-[Orn]R[Oic]PG[αMeF]S[d2Nal]I-OH): the half-inhibitory concentration (IC50) against hB2R [1] was over 10000 nM; at native hB1R it was 3 nM; at hB1R [2] (hB1R-stably expressing CHO-NFAT cells, antagonist potency, means of two independent experiments, read-out: CHO-NFAT IC50 (Table S1)), 1.4 nM; at hB1R [3], 2 nM; on hB2R [4], over 10000 nM. For the same compound, on hB1R [2] (read-out: B1R-NFAT CHO Kb), the Kb worked out at 1.4 nM.
